The text below walks through data of the METLIN SMRT retention time set (Domingo-Almenara et al. 2019).

This data set is described as follows: gradient 5% acetonitrile 3 min, to 50% in 2 min, to 85% in 15 min, held 3 min, 100 µL/min. The note with it: column: Zorbax Extend-C18 2.1 x 50 mm; eluents: water / acetonitrile, 0.1% formic acid. The essentials: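 Over 3 months, pure standards in mixtures of ~100 molecules were run by HPLC coupled to a quadrupole time-of-flight mass spectrometer in positive and negative ionization mode. The column was a Zorbax Extend-C18 (2.1 × 50 mm, 1.8 μm) at 100 μL/min, eluted with water and acetonitrile each holding 0.1% formic acid, with 40 μL dead and 900 μL dwell volumes. Retention time was determined from adduct peaks chosen by software and checked manually.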
`Cc1ccc(N2CC(c3noc(-c4ccc(C)c(C)c4)n3)CC2=O)cc1` (stereo not given) showed an RP-LC retention time of 1150 s.
In turn, `Cc1ccc(-c2nc(C(N)=O)c3n2CCCCC3)cc1` gave an RP-LC retention time of 690 s.
To `Cc1nn(-c2ccccc2)c(C)c1S(=O)(=O)N1CCC(C(=O)Nc2ccc(Cl)cc2F)CC1` belongs 1070 s; to `CCN(CC)C(=O)c1ccc2c(c1)nnn2CCNC(=O)Nc1ccc2c(c1)CCC2`, 764 s; to `COC(=O)c1cnc(N2CCN(C)CC2)c2ccccc12`, 610 s.
`CC(C)(C)n1ncc2c(=O)n(NC(=O)c3cc(=O)c4ccccc4o3)cnc21`: the RP-LC retention time was found to be 713 s.
Then `COc1cc(-c2nnc(-c3cccc(S(=O)(=O)N4CCCCC4)c3)o2)cc(OC)c1OC`, with 1010 s.
`O=C(Nc1ccc(Cl)cc1)C1CCN(S(=O)(=O)c2ccc(-c3noc(C4CC4)n3)cc2)CC1` displayed an RP-LC retention time of 1100 s.
To `O=C(c1ccncc1)N1CCC(n2nc(-c3ccsc3)ccc2=O)CC1` belongs 624 s.
In the case of `CSc1ccccc1C(=O)N1CC2CC1C(=O)O2` (stereo not given), the RP-LC retention time was 628 s.
To `CC1CCN(C2=NCCN2C(=O)c2ccccc2Cl)CC1` belongs 655 s.
Then `O=C(CC1CCN(C(=O)Nc2ccc(Br)cc2F)CC1)N1CCCCC1`, with 835 s.
To `Cc1cccc(S(=O)(=O)N2CCC(c3noc(-c4cccc(F)c4)n3)CC2)c1` belongs 1110 s.
For `COCCN(CC(=O)N1CCc2sccc2C1COc1ccccc1C)C(=O)CC(C)C` (stereo not given), the RP-LC retention time turned out to be 973 s.
To `COCc1noc([C@@H]2CC(F)(F)CN2C(=O)c2cc(C)oc2C)n1` belongs 835 s; to `CC(Cc1ccco1)NC(=O)c1ccc2nc(CCc3ccccc3)oc2c1` (stereo not given), 714 s; to `O=C(CN1C(=O)C2CCCCN2c2ccc(S(=O)(=O)N3CCCC3)cc21)NCC1COCCO1` (stereo not given), 736 s.
Then `COc1ccc(NC(=O)c2cc3ccccc3c(=O)o2)c([N+](=O)[O-])c1`, with 920 s; and `COC(=O)c1ccccc1Nc1c(-c2ccc(C)cc2)nc2cnc(Br)cn12`, with 1190 s; and `COc1ccc(-n2ncc3c(NC4CC4)ncnc32)cc1`, with 619 s.
To `CC1=C(C(=O)N2CCOCC2)C(c2ccc(F)c(Br)c2)C2=C(CCCC2=O)N1` (stereo not given) belongs 659 s.
`O=C(NC1CCCCC1)[C@@H]1C[C@@H](O)CN1C1CCN(C(=O)c2ccc(Cn3ccnc3)o2)CC1` showed an RP-LC retention time of 551 s.
With `Cc1ccccc1-c1noc(N2CCC(C(=O)NCc3ccc4c(c3)OCO4)CC2)n1`, the RP-LC retention time amounted to 942 s.
To `CCCN(CCC)S(=O)(=O)c1ccc(C(=O)Nc2nc(-c3ccc(F)cc3)cs2)cc1` belongs 1240 s; to `COc1ccc(Nc2c(-c3ccc(SC)cc3)nc3ncccn23)cc1OC`, 702 s; to `CO[C@H]1C(=O)N(C2CCN(S(=O)(=O)c3ccc(C#N)cc3)CC2)[C@H]1c1ccncc1`, 624 s.
Then `CCOc1ccc(NC(=O)Nc2cc(C(C)C)c(O)cc2C)cc1`, with 909 s; and `CCC(=O)N1CCc2cc(C(=O)N3CCN(c4ncccn4)CC3)ccc21`, with 697 s; and `COc1ccccc1-c1noc(CN2C(=O)COc3cc(Cl)ccc32)n1`, with 974 s.
To `O=C(CCc1c[nH]c2ccccc12)N1CC(n2ccnc2)C1` belongs 588 s; to `O=C(Nc1ccc(F)cc1F)N1CCc2nc[nH]c2C1`, 568 s.
For the molecule `CCC(Sc1nncn1C)C(=O)Nc1nnc(-c2cccc([N+](=O)[O-])c2)s1` (stereo not given), the RP-LC retention time was found to be 689 s.
To `CC(C)CCn1c(CN(C)C(=O)c2ccco2)nc2ccccc21` belongs 718 s.
To `CCCN1CCN(C(=O)CCCn2c3ccccc3c3cnn(C)c(=O)c32)CC1` belongs 600 s.
Then `Cc1nc2ccc3nc(NC(=O)c4snnc4C)sc3c2s1`, with 772 s; and `CCCC(NC(=O)c1cccs1)C(=O)Nc1nc2ccccc2[nH]1` (stereo not given), with 668 s.
Turning to `Cc1ccc(CCNC(=O)c2cc3sccc3n2Cc2ccc(Cl)cc2)cc1`, the RP-LC retention time came to 1270 s.
Then `O=c1ccc(S(=O)(=O)N2CCOCC2)cn1Cc1ccc(Cl)cc1`, with 814 s; and `COc1cc(OC2CCN(C)CC2)ccc1Nc1ncc2c(n1)n(C1CCCC1)c(=O)n2C`, with 654 s; and `COc1ccccc1NC(=O)NC1CCN(c2ccc(C)c(C)c2)C1=O` (stereo not given), with 870 s.
To `CC(C)(C)NC(=O)c1ccc(C(=O)NC(C)(C)C)cc1` belongs 840 s; to `COc1ccc(C(=O)c2c(C)n(CCN3CCOCC3)c3ccccc23)cc1`, 780 s.
Then `COc1ccc(-c2ccnc3nc(Cc4cc(F)cc(F)c4)nn23)c(F)c1`, with 973 s.
For `CCc1noc2nc(C)n(CC(=O)NCc3ccccc3F)c(=O)c12`, the RP-LC retention time worked out at 788 s.
Then `Cc1cc(-c2nnc(-c3ccco3)o2)c(C)n1CC(=O)NCc1ccc(Cl)cc1`, with 637 s; and `CC(C)CCNC(=O)N1CCN(Cc2nc3cccnc3n2-c2ccc(F)cc2)CC1`, with 667 s.
Then `CS(=O)(=O)c1cccc(-c2nnc(NC(=O)c3ccc(Cl)s3)o2)c1`, with 711 s.
Turning to `Cc1oc(-c2[nH]ncc2C(=O)N2CCCC2)cc1S(=O)(=O)Nc1ccc(F)cc1F`, the RP-LC retention time turned out to be 698 s.
As to `CCOC(=O)c1cn(Cc2ccc(F)cc2)c2nc(C)ccc2c1=O`, the RP-LC retention time was 854 s.
To `COc1ccc(NS(=O)(=O)c2ccc(N)cc2)nn1` belongs 572 s; to `Cc1cc(-c2csc(S(=O)(=O)NCCc3ccc(S(N)(=O)=O)cc3)c2)on1`, 744 s.
In turn, `COc1ccc(OCC(=O)N2CCN(c3ccc(-c4nc(C)c(C)s4)cn3)CC2)cc1` displayed an RP-LC retention time of 855 s.
To `Cc1ccc(N2CCN(C(=O)CN3CCN(Cc4ccc(F)cc4)C3=O)CC2)cc1` belongs 837 s; to `COc1ccc(-c2noc(C3CC(=O)N(c4ccc(OC)c(OC)c4)C3)n2)c(OC)c1` (stereo not given), 786 s.
Then `Cc1nc2ccn(Cc3cccnc3)c(=O)c2cc1C(=O)NCc1ccc2c(c1)OCO2`, with 592 s.
Then `COc1ccc(C(=O)NC2(c3nc(C)no3)CCCCC2)cc1F`, with 854 s.
Take `Fc1ccc(Nc2c(-c3ccc(Cl)cc3)nc3cnccn23)cc1`: the RP-LC retention time was 963 s.
Then `CCn1cc(CCN2CCC(C(=O)Nc3ccccc3C)CC2)c2cccnc21`, with 621 s; and `O=C(CSc1nccc(-c2ccc3c(c2)OCO3)n1)c1ccc2c(c1)OCO2`, with 888 s.
Then `CCCn1ccc2sc(C)c(C(=O)N3CCN(c4ccccc4)CC3)c2c1=O`, with 849 s; and `O=C([C@@H]1C[C@H](Oc2ccccc2)CN1C1CCOCC1)N1CCc2ccccc21`, with 709 s; and `COCC(=O)Nc1ccc(-c2nc3cccnc3s2)cc1C`, with 729 s.
`COc1ccccc1C(=O)N1CCC(Oc2cc(N(C)C)ncn2)C1` (stereo not given) had an RP-LC retention time of 639 s.
Then `COC(=O)C1=CN(c2cc(C)cc(C)c2)c2ccccc2S1(=O)=O`, with 943 s.
Then `COc1ccc(NC(=O)C2CCN(c3cnc4nc(C)c(C)nc4c3)CC2)c(C)c1`, with 683 s.
Then `CCc1noc2ncnc(NCCN(C)Cc3ccccc3)c12`, with 595 s; and `CC(C)Cn1ccc2c(cc(C(=O)Nc3ccc(OC(F)(F)F)cc3)n2C)c1=O`, with 1020 s.
Turning to `O=C(C1CCCN(c2ccc(-c3ccccc3)nn2)C1)N1CCN(c2ccccc2)CC1` (stereo not given), the RP-LC retention time came to 783 s.
Then `Cc1ccsc1C(=O)Nc1cccn2nc(C3CCC3)nc12`, with 1030 s; and `O=C(Nc1cc(-c2cccnc2)no1)c1ccc(F)cc1`, with 729 s; and `Cc1nn(CC(=O)N2CCC(N3CCCCC3)CC2)c(=O)c2nn(-c3ccccc3)c(C)c12`, with 605 s.
Then `O=C(CCC1CCN(S(=O)(=O)c2ccccc2)CC1)N1CCCCC1`, with 894 s; and `Cc1cccc(NC(=O)N2CCCC2c2cc(C(C)C)on2)c1` (stereo not given), with 967 s; and `CCCCNC(=O)Cc1csc(-n2nc(C)c(Cl)c2C)n1`, with 763 s.
Then `COc1ccc(-c2ncc3c(n2)CCN(C(=O)Cc2ccc(OC)cc2Cl)C3)cc1`, with 987 s; and `COc1ccc(NC(=O)Cn2cc(C(=O)C3CC3)c3ccccc32)cc1`, with 864 s.
`Cc1ccc(-n2nc(N3CCCN(C(=O)c4ccc(Br)o4)CC3)ccc2=O)cc1C` came in with an RP-LC retention time of 824 s.
As to `NC(=O)C1CCN(Cc2cc(-c3ccc(F)cc3)n[nH]2)CC1`, the RP-LC retention time is 571 s.
Then `Cc1ccccc1NC(=O)N1CC(F)(F)C[C@H]1CN1CCCC1`, with 622 s; and `COc1ccc(C(=O)NCc2c(-c3ccccc3)nc3sc(C)nn23)cn1`, with 774 s.
